Patent publication US10351576B2, “Fused tricyclic pyrazole derivatives useful for farnesoid X receptors” (NOVARTIS AG, priority 2015, dated 2019)

Target: T1, human Farnesoid X Receptor (FXR) ligand binding domain (GST-FXR LBD) (Homo sapiens, UniProt Q96RI1)
T1 construct: purchased Invitrogen
T1 sequence (Q96RI1 193-472 isoform Q96RI1-2): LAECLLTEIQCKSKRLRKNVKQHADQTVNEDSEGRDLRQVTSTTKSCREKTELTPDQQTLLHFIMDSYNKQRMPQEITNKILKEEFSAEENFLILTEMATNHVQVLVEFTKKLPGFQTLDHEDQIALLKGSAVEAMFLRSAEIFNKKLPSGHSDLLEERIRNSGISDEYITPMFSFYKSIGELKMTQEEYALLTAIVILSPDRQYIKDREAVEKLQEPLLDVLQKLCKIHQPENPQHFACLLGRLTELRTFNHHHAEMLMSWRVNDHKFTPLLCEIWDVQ
Experiment: Human GST-FXR LBD co-activator interaction assay (FXR HTRF assay)
Format: biochemical
Conditions: ligand-dependent interaction of GST-FXR LBD with biotin-labeled SRC-1 peptide, response relative to GW4064, read-out: FXR coactivator interaction assay (HTRF)
From the text: Human GST-FXR LBD Co-Activator Interaction Assay
The FXR HTRF assay is a biochemical assay measuring the interaction between FXR and a coactivator protein (SRC1). The ligand-induced interaction with a coactivator protein is a critical step in transcriptional activation by FXR. Thus, this is an assay designed to measure FXR agonist activity of the test compounds.
Recombinant human Farnesoid X Receptor (FXR) ligand binding domain (amino acids 193-472) fused to glutathione S-transferase (GST) purified protein (GST-FXR LBD) was purchased (Invitrogen). The ligand-dependent interaction between GST-FXR LBD and a peptide derived from Steroid Receptor Coactivator-1 (SRC-1) was monitored by Fluorescence Resonance Energy Transfer (FRET). […] Test compounds (in DMSO solution) and detection reagents (anti-GST-Cryptate labeled antibody and Streptavidin-XL665 conjugate; CisBio) were added in assay buffer containing 50 mM KF. Plates are incubated at room temperature in the dark for 2.5 hrs before reading on an Envision (PerkinElmer) at 665 nm and 590 nm. The HTRF assay results were calculated from the 665 nm/590 nm ratio (ratio=(A665 nm/A590 nm)×10^4) and expressed in Delta F %=(Ratiosample−Rationegative)/Rationegative×100.
A negative control (without Streptavidin-XL665) was run with each assay and represented the background fluorescence. A reference FXR agonist, (E)-3-(2-chloro-4-((3-(2,6-dichlorophenyl)-5-isopropylisoxazol-4-yl)methoxy)styryl)benzoic acid (Compound GW4064), was included in each experiment as positive control. The efficacy of each test compound was compared to that of GW4064. At each concentration, the relative activity of the test compound was expressed as Response %=(Rsample−RDMSO)/(Rpositive−RDMSO), where Rsample is the HTRF response (expressed in Delta F %) for the test compound, Rpositive is the maximal response for GW4064 at saturating concentrations, and RDMSO is the response for DMSO control. The EC50 values were calculated using GraphPad Prism (GraphPad Software) using non-linear regression curve fit (log(agonist) vs. response—variable slope (four parameters)).

SMILES | EC50 [nM]
Cn1nc(C(=O)N(CC(=O)NC2CC2(F)F)Cc2ccccc2F)c2c1-c1cc(Cl)ccc1OC2 (stereo not shown) [Compound 23, 2-(1-{8-chloro-1-methyl-1H,4H-chromeno[4,3-c]pyrazol-3-yl}-N-[(2-fluorophenyl)methyl]formamido)-N-(2,2-difluorocyclopropyl)acetamide] | 87
CC(C)NC(=O)CN(Cc1cc(F)cc(F)c1)C(=O)c1nn(C)c2c1COc1ccc(Cl)cc1-2 [Compound 24, 2-(1-{8-chloro-1-methyl-1H,4H-chromeno[4,3-c]pyrazol-3-yl}-N-[(3,5-difluorophenyl)methyl]formamido)-N-(propan-2-yl)acetamide] | 78
CC(C)NC(=O)CN(Cc1ccccc1)C(=O)c1nn(C)c2c1COc1ccc(Br)cc1-2 [Compound 25, 2-(N-benzyl-1-{8-bromo-1-methyl-1H,4H-chromeno[4,3-c]pyrazol-3-yl}formamido)-N (propan-2-yl)acetamide] | 32
CC(C)NC(=O)CN(Cc1cc(F)ccc1F)C(=O)c1nn(C)c2c1COc1ccc(Cl)cc1-2 [Compound 26, 2-(1-{8-chloro-1-methyl-1H,4H-chromeno[4,3-c]pyrazol-3-yl}-N-[(2,5-difluorophenyl)methyl]formamido)-N-(propan-2-yl)acetamide] | 84
Cn1nc(C(=O)N(CC(=O)NC2CC2)Cc2cccc(F)c2)c2c1-c1cc(Cl)ccc1OC2 [Compound 27, 2-(1-{8-chloro-1-methyl-1H,4H-chromeno[4,3-c]pyrazol-3-yl}-N-[(3-fluorophenyl)methyl]formamido)-N-cyclopropylacetamide] | 61
CC(C)NC(=O)CN(Cc1cccc(F)c1)C(=O)c1nn(C)c2c1COc1ccc(Br)cc1-2 [Compound 28, 2-(1-{8-bromo-1-methyl-1H,4H-chromeno[4,3-c]pyrazol-3-yl}-N-[(3-fluorophenyl)methyl]formamido)-N-(propan-2-yl)acetamide] | 36
CC(C)NC(=O)CN(Cc1ccccc1F)C(=O)c1nn(C)c2c1COc1ccc(Cl)cc1-2 [Compound 29, 2-(1-{8-chloro-1-methyl-1H,4H-chromeno[4,3-c]pyrazol-3-yl}-N-[(2-fluorophenyl)methyl]formamido)-N-(propan-2-yl)acetamide] | 197
Cn1nc(C(=O)N(CC(=O)NC(C)(C)C)Cc2ccccc2F)c2c1-c1cc(Cl)ccc1OC2 [Compound 30, N-tert-butyl-2-(1-{8-chloro-1-methyl-1H,4H-chromeno[4,3-c]pyrazol-3-yl}-N-[(2-fluorophenyl)methyl]formamido)acetamide] | 190
Cn1nc(C(=O)N(CC(=O)NCC2CCCO2)Cc2ccccc2F)c2c1-c1cc(Cl)ccc1OC2 (stereo not shown) [Compound 31, 2-(1-{8-chloro-1-methyl-1H,4H-chromeno[4,3-c]pyrazol-3-yl}-N-[(2-fluorophenyl)methyl]formamido)-N-(oxolan-2-ylmethyl)acetamide] | 124
Cn1nc(C(=O)N(CC(=O)NCC2CCCOC2)Cc2ccccc2F)c2c1-c1cc(Cl)ccc1OC2 (stereo not shown) [Compound 32, 2-(1-{8-chloro-1-methyl-1H,4H-chromeno[4,3-c]pyrazol-3-yl}-N-[(2-fluorophenyl)methyl]formamido)-N-(oxan-3-ylmethyl)acetamide] | 376
Cn1nc(C(=O)N(CC(=O)NCCF)Cc2cccc(F)c2F)c2c1-c1cc(Cl)ccc1OC2 [Compound 33, 2-(1-{8-chloro-1-methyl-1H,4H-chromeno[4,3-c]pyrazol-3-yl}-N-[(2,3-difluorophenyl)methyl]formamido)-N-(2-fluoroethyl)acetamide] | 62
CNC(=O)CN(Cc1ccccc1)C(=O)c1nn(C)c2c1COc1ccc(Br)cc1-2 [Compound 34, 2-(N-benzyl-1-{8-bromo-1-methyl-1H,4H-chromeno[4,3-c]pyrazol-3-yl}formamido)-N methylacetamide] | 193
CC(C)NC(=O)CN(Cc1c(F)cccc1F)C(=O)c1nn(C)c2c1COc1ccc(Cl)cc1-2 [Compound 35, 2-(1-{8-chloro-1-methyl-1H,4H-chromeno[4,3-c]pyrazol-3-yl}-N-[(2,6-difluorophenyl)methyl]formamido)-N-(propan-2-yl)acetamide] | 366
Cn1nc(C(=O)N(CC(=O)NC2CCS(=O)(=O)C2)Cc2cccc(F)c2)c2c1-c1cc(Cl)ccc1OC2 (stereo not shown) [Compound 36, 8-chloro-N-(2-((1,1-dioxidotetrahydrothiophen-3-yl)amino)-2-oxoethyl)-N-(3-fluorobenzyl)-1-methyl-1,4-dihydrochromeno[4,3-c]pyrazole-3-carboxamide] | 99
CNC(=O)c1ccc(NC(=O)CN(Cc2ccccc2F)C(=O)c2nn(C)c3c2COc2ccc(Cl)cc2-3)cc1 [Compound 37, 4-[2-(1-{8-chloro-1-methyl-1H,4H-chromeno[4,3-c]pyrazol-3-yl}-N-[(2-fluorophenyl)methyl]formamido)acetamido]-N-methylbenzamide] | 192
Cn1nc(C(=O)N(CC(=O)NC2CCC(O)CC2)Cc2ccccc2F)c2c1-c1cc(Cl)ccc1OC2 (stereo not shown) [Compound 38, 2-(1-{8-chloro-1-methyl-1H,4H-chromeno[4,3-c]pyrazol-3-yl}-N-[(2-fluorophenyl)methyl]formamido)-N-(4-hydroxycyclohexyl)acetamide] | 717
Cn1nc(C(=O)N(CC(=O)NC2CCS(=O)(=O)C2)Cc2ccccc2F)c2c1-c1cc(Cl)ccc1OC2 (stereo not shown) [Compound 39, 8-chloro-N-(2-((1,1-dioxidotetrahydrothiophen-3-yl)amino)-2-oxoethyl)-N-(2-fluorobenzyl)-1-methyl-1,4-dihydrochromeno[4,3-c]pyrazole-3-carboxamide] | 482
Cn1nc(C(=O)N(CC(=O)NCC2CC2)CC2CCOCC2)c2c1-c1cc(Cl)ccc1OC2 [Compound 40, 2-(1-{8-chloro-1-methyl-1H,4H-chromeno[4,3-c]pyrazol-3-yl}-N-(oxan-4-ylmethyl)formamido)-N-(cyclopropylmethyl)acetamide] | 608
Cn1nccc1NC(=O)CN(Cc1ccccc1F)C(=O)c1nn(C)c2c1COc1ccc(Cl)cc1-2 [Compound 41, 2-(1-{8-chloro-1-methyl-1H,4H-chromeno[4,3-c]pyrazol-3-yl}-N-[(2-fluorophenyl)methyl]formamido)-N-(1-methyl-1H-pyrazol-5-yl)acetamide] | 1610
CC(C)NC(=O)CN(Cc1cccc(F)c1F)C(=O)c1nn(C)c2c1COc1ccc(Cl)cc1-2 [Compound 42, 2-(1-{8-chloro-1-methyl-1H,4H-chromeno[4,3-c]pyrazol-3-yl}-N-[(2,3-difluorophenyl)methyl]formamido)-N-(propan-2-yl)acetamide] | 631
Cn1nc(C(=O)N(CC(=O)NC(C)(C)c2ccccc2)Cc2ccccc2F)c2c1-c1cc(Cl)ccc1OC2 [Compound 43, 2-(1-{8-chloro-1-methyl-1H,4H-chromeno[4,3-c]pyrazol-3-yl}-N-[(2-fluorophenyl)methyl]formamido)-N-(2-phenylpropan-2-yl)acetamide] | 1700
Cn1nc(C(=O)N(CC(=O)NCC(O)C(F)(F)F)Cc2ccccc2F)c2c1-c1cc(Cl)ccc1OC2 (stereo not shown) [Compound 44, 8-chloro-N-(2-fluorobenzyl)-1-methyl-N-(2-oxo-2-((3,3,3-trifluoro-2-hydroxypropyl)amino)ethyl)-1,4-dihydrochromeno[4,3-c]pyrazole-3-carboxamide] | 8
Cn1nc(C(=O)N(CC(=O)NCC(C)(O)C(F)(F)F)Cc2ccccc2F)c2c1-c1cc(Cl)ccc1OC2 (stereo not shown) [Compound 45, 2-(1-{8-chloro-1-methyl-1H,4H-chromeno[4,3-c]pyrazol-3-yl}-N-[(2-fluorophenyl)methyl]formamido)-N-(3,3,3-trifluoro-2-hydroxy-2-methylpropyl)acetamide] | 33
Cn1nc(C(=O)N(CC(=O)NCC(C)(C)O)Cc2ccccc2F)c2c1-c1cc(Cl)ccc1OC2 [Compound 46, 2-(1-{8-chloro-1-methyl-1H,4H-chromeno[4,3-c]pyrazol-3-yl}-N-[(2-fluorophenyl)methyl]formamido)-N-(2-hydroxy-2-methylpropyl)acetamide] | 19
Cn1nc(C(=O)N(CC(=O)NCC2(O)CC2)Cc2ccccc2F)c2c1-c1cc(Cl)ccc1OC2 [Compound 48, 2-(1-{8-chloro-1-methyl-1H,4H-chromeno[4,3-c]pyrazol-3-yl}-N-[(2-fluorophenyl)methyl]formamido)-N-[(1-hydroxycyclopropyl)methyl]acetamide] | 75
